Experiments:
[1] = test system: myocardial contraction; conditions: cited from earlier work; for myocardial contraction activity, equivalent to % of forskolin: source [2]; for myocardial contraction activity EC50: sources [7], [8]
[2] = cited from earlier work; for antihypertensive effect, equivalent to % of forskolin: source [2]
[3] = test system: cAMP; conditions: source [1]; cited from earlier work
[4] = test system: systolic blood pressure (SBP), diastolic blood pressure (DBP), heart rate (HR); conditions: source [3]; cited from earlier work
[5] = of 6-[3-(dimethylamino)propionyl]forskolin; sources [3], [4]; cited from earlier work
[6] = test system: guinea pig myocardial contraction; conditions: source [5]; cited from earlier work
[7] = test system: TNF-α; experiment: LPS-induced TNF-α secretion in THP-1 cells, ELISA of culture supernatant; type: cell-based, human; conditions: for TNF-α treatment value, B: relative to control
Experimental: 1) Recoveried and expanded THP-1 cells in a T75 culture flask. The growth medium was 10 milliliters of 10% fetal bovine serun/RPMI1640 (already containing 2 mM glutamine)/1% double antibiotics in each flask. Observed the cells under an invert microscope, and, when the cells were in the logarithmic growth phase, started the following drug treatment experiments; 2) Cultured 2*10e5/mL THP-1 cells in a 96-well culture plate with 100 microliters of growth medium (10% fetal bovine serum/RPMI640/1% double antibiotics) per well, and added 100 ng/ml PMA to incubate for 24 hour; 3) Eluted the non-adherent cells once with 300 microliters of fresh growth medium of 10% fetal bovine serum/RPMI1640/1% double antibiotics; 4) Added 200 microliters of growth medium of 10% fetal bovine serum/RPMI1640/1% double antibiotics, with/without test compound, to pre-incubate the cells at 37° C. for 2 hours; 5) Then added 100 ng/mL lipopolysaccharide (LPS) and incubated at 37° C. for 4 hours: 6) Collected 50 microliters of cell culture supernatant for the detection of the levels of related cytokines by enzyme-linked immunoassay, or stored it in a refrigerator at minus 80 degrees Celsius for future detection; 1) Prepared 1× elution buffer for enzyme-linked immunoassay. Prepared it with ultrapure water: 10× elution buffer mother solution=9:1 in volume ratio for use; 2) Prepared the antibody cocktail for enzyme-linked immunoassay. Prepared it with the antibody diluent (provided by Ab221825):antibody 1:antibody 2=18:1:1 in volume ratio for use. Antibody 1 was a TNF-α capture antibody and Antibody 2 was a TNF-α detector antibody. They were all supplied by kit Ab221825; 3) Prepared a series of concentration gradient samples of TNF-α standard with ultrapure water for the plotting of reaction standard curve and determining the linear range of detection signal; 4) Added 50 microliters of cell culture supernatant/standard and 50 microliters of the above antibody cocktail to a 96-well plate used for enzymatic reaction, sealed it with a film, placed it on a horizontal shaker, and incubated at 400 rpm for 1 hour at room temperature to allow the antibody-antigen complex was fully bound and coupled at the bottom of the well plate; 5) Discarded the supernatant, eluted with 350 microliters of 1× elution buffer/well for 3 times. In the last elution, put the well plate upside down on an absorbent paper and sucked and washed it thoroughly; 6) Added 100 microliters of TMB substrate solution (supplied by Ab221825) to each well, placed them on a horizontal shaker and incubated in the dark at room temperature for 5 minutes at a speed of 400 rpm; 7) Added 100 microliters of reaction stop solution (provided by Ab221825), placed on a horizontal shaker and mix at 400 rpm for 1 minute; 8) Detected the absorbance at 450 nm with a microplate reader.

[8] = test system: IL-17A; experiment: IL-17A secretion of mouse spleen Naïve CD4+ T cells induced to differentiate to Th17 cells by cytokines, ELISA; type: cell-based
Experimental: 1) Pre-coated the 96-well plate with 2 μg/mL anti-mouse CD3e and incubated overnight at 4 degrees Celsius: 2) Separated fresh spleens from adult C57BL/6 female mice (8-12 weeks old), ground and filtered through a […] nylon cell strainer to obtain a single cell suspension in pre-cooled DPBS; 3) Washed the spleen cells again with DPBS, and resuspended in RoboSep™ buffer at a density of 1×10^8/mL; 4) Separated primary CD4+ T cells with mouse primary CD4+ T cell isolation kit as required by the kit; 5) Resuspended the isolated CD4+ T cells in complete medium (RPMI 1640 medium+10% inactivated FBS+1% double antibiotics) at a density of 1×10^6/mL; 6) Washed the 96-well plate pre-coated with anti-mouse CD3e twice with DPBS, added 50 μL of cytokine cocktail, the composition and final concentration of which are shown in Table 6 below, and then added 50 μL of compound solution (the final concentration of DMSO was 0.1%). Added 100 μL of cell suspension to each well to allow the final cell number per well to be 1×10^5/100 μL; [table] 7) Cultured the cells for 7 days under the above conditions. The culture conditions were 37 degrees Celsius, 5% CO2 concentration; 8) After 7 days, added 1× stimulation cocktail (eBioscience 500X) to the culture medium for 4 hours, and then collected cell culture supernatant for detection with IL-17A enzyme-linked immunoassay kit; 9) Completed the detection of supernatant IL-17A concentration with mouse IL-17 DuoSet ELISA kit; 10) Read the OD450 nm absorbance value with a microplate reader, and generated the standard curve by using the 4-parameter logistic fitting (4-PL) method. 1) Diluted the capture antibody (provided in the kit) to a working concentration in PBS without carrier protein, that is, a 96-well plate can be coated with 100 microliters per well. Sealed and incubated the plate overnight at room temperature; 2) Aspirated the coating buffer of the well plate, and eluted with 400 microliters of eluent (provided in the kit) for three times, aspirating as much liquid as possible each time; 3) Added 300 microliters of diluent (provided in the kit) to each well, and equilibrated for 1 hour at room temperature; 4) Eluted the well plate as in the above step 2) to be ready for the addition of sample; ) Added 100 microliters of sample or standard to each well containing the added diluent, and sealed and incubated the well plate for 2 hours at room temperature; 6) Eluted the well plate as in the above step 2); 7) Added 100 microliters of detector antibody (provided in the kit) to each well, and sealed and incubated the well plate for 2 hours at room temperature. 8) Eluted the well plate as in the above step 2); 9) Added 100 microliters of Streptavidin-HRP working solution (provided in the kit) to each well, and sealed and incubated the well plate in dark for 20 minutes at room temperature. 10) Eluted the well plate as in the above step 2); 11) Added 100 microliters of reaction substrate solution (provided in the kit) to each well, and incubated at room temperature for 20 minutes, protected from light: 12) Added 50 microliters of stop solution (provided in the kit) to each well, and tapped the well plate to ensure that the liquid is evenly mixed; 13) Detected the optical density value of each well at […]. The values could be corrected by deducting the values at 540 nm or 570 nm.

[9] = target: adenylate cyclase in rat cerebral cortex; conditions: source [8]; read-out: activation of adenylate cyclase in rat cerebral cortex EC50; cited from earlier work
[10] = cited from earlier work
[11] = test system: psoriasis; conditions: 4 patients with psoriasis; PCT/US84/00291; cited from earlier work

In the case of `C=C[C@@]1(C)CC(=O)C2(O)[C@@]3(C)C(O)CCC(C)(C)C3[C@H](OC(=O)CCCN)C(OC(C)=O)[C@@]2(C)O1` (stereo partly shown) [6-(4-aminobutyryl)forskolin], the myocardial contraction activity ([1]; source [1]) is listed as 0.9 dp/dt, the antihypertensive effect ([2]; source [1]) is listed as 0.7 and the cAMP activation [3] is listed as 214.9%.
For `C=C[C@@]1(C)CC(=O)C2(O)[C@@]3(C)C(O)CCC(C)(C)C3[C@H](OC(=O)CCN(C)C)C(OC(C)=O)[C@@]2(C)O1` (stereo partly shown) [6-[3-(dimethylamino)propionyl]forskolin], the “myocardial contraction activity, equivalent to % of forskolin” value [1] is listed as 120 % of forskolin and the “antihypertensive effect, equivalent to % of forskolin” value [2] is listed as 80 % of forskolin.
For `C=C[C@@]1(C)CC(=O)C2(O)[C@@]3(C)[C@@H](O)CCC(C)(C)[C@@H]3[C@H](OC(=O)CCNC)[C@H](OC(C)=O)[C@@]2(C)C1` (stereo partly shown) [6-[3-(methylamino)propionyl]forskolin], the “beagle dog's systolic blood pressure (SBP), diastolic blood pressure (DBP), heart rate (HR) and other effects” value [4] is given as “equivalent to 6-[3- (dimethylamino)- propionyl]forskolin” and the metabolite status [5] is given as “in vivo active metabolite”.
For `C=C[C@@]1(C)CC(=O)C2(O)[C@@]3(C)[C@@H](O)CCC(C)(C)[C@@H]3[C@H](OC(=O)CCN)[C@H](OC(C)=O)[C@@]2(C)C1` (stereo partly shown) [6-[3-aminopropionyl]forskolin], the metabolite status [5] is listed as “in vivo active metabolite of 6-[3- (dimethylamino)- propionyl]forskolin”.
In the case of `C=C[C@@]1(C)CC(=O)C2(O)[C@@]3(C)C(O)CCC(C)(C)C3[C@H](OC(=O)CCCN(C)C)C(OC(C)=O)[C@@]2(C)O1` (stereo partly shown) [6-[4-(dimethylamino)butyryl]forskolin], the “myocardial contraction activity, equivalent to % of forskolin” value [1] is listed as 100 % of forskolin and the “antihypertensive effect, equivalent to % of forskolin” value [2] is listed as 90 % of forskolin.
In the case of `C=CC1(C)CC(=O)C2(O)C(C)(O1)C(O)C(OC(=O)CN1CCCCC1)C1C(C)(C)CCC(O)C12C` (stereo not shown) [6-[(piperidino)acetyl]-7-desacetyl forskolin], the “guinea pig myocardial contraction activity EC50” value [6] is listed as “guinea pig myocardial contraction activity EC50: 1.8 μg/mL”.
In the case of `C=C[C@@]1(C)CC(=O)[C@]2(O)C3(C)C(C(O)C(OC(=O)COC=O)[C@@]2(C)O1)C(C)(C)CC[C@@H]3O` (stereo partly shown) [7-(2-formyloxy)forskolin], the “myocardial contraction activity EC50” value [1] is listed as “myocardial contraction activity EC50 = 0.002 μg/mL”.
In the case of `CCCCC[C@H](O)/C=C/[C@H]1[C@H](O)CC(=O)[C@@H]1C/C=C\CCCC(=O)O` [PGE2, prostaglandin E2, reference compound], the “effect on secretion and expression of TNF-α” value ([7]; 10 μM PGE2 alone, FIG. 4) is reported as “inhibited the secretion and expression of TNF-α to a certain extent”, the “TNF-α treatment value, B” value ([7]; Table 3, 10 μM PGE2) is reported as 46% and the “IL-17A, % of the basic level” value ([8]; 3 μM PGE2 alone, FIG. 10) is reported as 17%. For the same compound, the “IL-17A treatment value, B” value ([8]; Table 7, relative to control, 3 μM PGE2) was 17%.
For `C=C[C@@]1(C)CC(=O)[C@]2(O)[C@@]3(C)[C@@H](O)CCC(C)(C)[C@@H]3[C@H](O)[C@H](OC(C)=O)[C@@]2(C)O1` [forskolin], the “drug activity in reducing TNF-α” value ([7]; FIG. 2, compared with 6-[3-(dimethylamino)propionyl]forskolin hydrochloride) is listed as “slightly lower than the aforementioned compound”, the “myocardial contraction activity EC50” value [1] is listed as 0.02 mg/L and the EC50 [9] is listed as 8 µM. For the same compound, the water solubility [10] was “poor” and the “effect on pathological symptoms of psoriasis” value [11] was “relieved the pathological symptoms”.
In the case of `C[C@]12CCC(=O)C=C1CC[C@@H]1[C@@H]2[C@@H](O)C[C@@]2(C)[C@H]1CC[C@]2(O)C(=O)CO` [hydrocortisone, reference compound], the “effect on TNF-α” value ([7]; 30 μM hydrocortisone alone, pre-incubated 2 hours before LPS, FIG. 6) is reported as “further stimulated the increase of inflammatory factor TNF-α”, the “TNF-α treatment value, B” value ([7]; Table 4, 30 μM hydrocortisone) is reported as 200% and the “reduction of the IL-17A level, % of the basic level” value ([8]; 3 μM hydrocortisone alone, FIG. 12) is reported as 38%. The “IL17-A treatment value, B” value ([8]; Table 8, relative to control, 3 μM hydrocortisone) was 62%.
